Assays:
Assay in all cases: relative viability (nuclei count vs DMSO), 5 days (fraction); higher = more cells survive
NCI-H1993 = system: NCI-H1993
Outline: (§1)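 Lung cancer cell lines in 1536-well plates were dosed by pin tool the day after seeding, either with one drug alone or with a fixed anchor-drug dose plus five library-drug doses (not always all listed) in √10 steps. After 5 days, cells were fixed and their nuclei stained in one step (final 0.05% Triton X-100, 1% formaldehyde, 1 ug/ml Hoechst), then counted on 4× images. Relative viability is the nuclei count in treated wells divided by that in vehicle wells. Values are medians of duplicate plates.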

LOU-NH91 = system: LOU-NH91
Outline: as §1

NCI-H596 = system: NCI-H596
Outline: as §1

NCI-H2347 = system: NCI-H2347
Outline: as §1

BEN = system: BEN
Outline: as §1

NCI-H2126 = system: NCI-H2126
Outline: as §1

NCI-H441 = system: NCI-H441
Outline: as §1

HCC-44 = system: HCC-44
Outline: as §1

EMC-BAC-2 = system: EMC-BAC-2
Outline: as §1

NCI-H2087 = system: NCI-H2087
Outline: as §1

NCI-H2023 = system: NCI-H2023
Outline: as §1

LCLC-103H = system: LCLC-103H
Outline: as §1

NCI-H23 = system: NCI-H23
Outline: as §1

201T = system: 201T
Outline: as §1

NCI-H3122 = system: NCI-H3122
Outline: as §1

NCI-H838 = system: NCI-H838
Outline: as §1

HARA = system: HARA
Outline: as §1

NCI-H522 = system: NCI-H522
Outline: as §1

NCI-H647 = system: NCI-H647
Outline: as §1

NCI-H650 = system: NCI-H650
Outline: as §1

NCI-H1395 = system: NCI-H1395
Outline: as §1

NCI-H727 = system: NCI-H727
Outline: as §1

Cc1sc2c(c1C)C(c1ccc(Cl)cc1)=N[C@@H](CC(=O)OC(C)(C)C)c1nnc(C)n1-2 [JQ1] + N=C(N)NC(=N)NCCc1ccccc1 [Phenformin] (partner 250 µM)
relative viability (NCI-H1993; first compound 0.04 µM): 0.49
relative viability (NCI-H1993; first compound 0.1265 µM): 0.55
relative viability (NCI-H1993; first compound 0.4 µM): 0.561
relative viability (NCI-H1993; first compound 1.265 µM): 0.557
relative viability (NCI-H1993; first compound 4 µM): 0.572
relative viability (LOU-NH91; first compound 0.04 µM): 0.735
relative viability (LOU-NH91; first compound 0.1265 µM): 0.555
relative viability (LOU-NH91; first compound 0.4 µM): 0.384
relative viability (LOU-NH91; first compound 1.265 µM): 0.328
relative viability (LOU-NH91; first compound 4 µM): 0.326
relative viability (NCI-H596; first compound 0.04 µM): 0.702
relative viability (NCI-H596; first compound 0.1265 µM): 0.812
relative viability (NCI-H596; first compound 0.4 µM): 0.829
relative viability (NCI-H596; first compound 1.265 µM): 0.374
relative viability (NCI-H596; first compound 4 µM): 0.348
relative viability (NCI-H2347; first compound 0.04 µM): 0.332
relative viability (NCI-H2347; first compound 0.1265 µM): 0.504
relative viability (NCI-H2347; first compound 0.4 µM): 0.323
relative viability (NCI-H2347; first compound 1.265 µM): 0.358
relative viability (NCI-H2347; first compound 4 µM): 0.233
relative viability (BEN; first compound 0.04 µM): 0.273
relative viability (BEN; first compound 0.1265 µM): 0.296
relative viability (BEN; first compound 0.4 µM): 0.303
relative viability (BEN; first compound 1.265 µM): 0.309
relative viability (BEN; first compound 4 µM): 0.215
relative viability (NCI-H2126; first compound 0.04 µM): 0.552
relative viability (NCI-H2126; first compound 0.1265 µM): 0.555
relative viability (NCI-H2126; first compound 0.4 µM): 0.489
relative viability (NCI-H2126; first compound 1.265 µM): 0.39
relative viability (NCI-H2126; first compound 4 µM): 0.411
relative viability (NCI-H441; first compound 0.04 µM): 0.728
relative viability (NCI-H441; first compound 0.1265 µM): 0.778
relative viability (NCI-H441; first compound 0.4 µM): 0.681
relative viability (NCI-H441; first compound 1.265 µM): 0.388
relative viability (NCI-H441; first compound 4 µM): 0.289
relative viability (HCC-44; first compound 0.04 µM): 0.201
relative viability (HCC-44; first compound 0.1265 µM): 0.184
relative viability (HCC-44; first compound 0.4 µM): 0.161
relative viability (HCC-44; first compound 1.265 µM): 0.125
relative viability (HCC-44; first compound 4 µM): 0.111
relative viability (EMC-BAC-2; first compound 0.04 µM): 0.551
relative viability (EMC-BAC-2; first compound 0.1265 µM): 0.326
relative viability (EMC-BAC-2; first compound 0.4 µM): 0.454
relative viability (EMC-BAC-2; first compound 1.265 µM): 0.267
relative viability (EMC-BAC-2; first compound 4 µM): 0.264
relative viability (NCI-H2087; first compound 0.04 µM): 0.52
relative viability (NCI-H2087; first compound 0.1265 µM): 0.406
relative viability (NCI-H2087; first compound 0.4 µM): 0.406
relative viability (NCI-H2087; first compound 1.265 µM): 0.266
relative viability (NCI-H2087; first compound 4 µM): 0.273
relative viability (NCI-H2023; first compound 0.04 µM): 0.399
relative viability (NCI-H2023; first compound 0.1265 µM): 0.354
relative viability (NCI-H2023; first compound 0.4 µM): 0.307
relative viability (NCI-H2023; first compound 1.265 µM): 0.177
relative viability (NCI-H2023; first compound 4 µM): 0.147
relative viability (LCLC-103H; first compound 0.04 µM): 0.345
relative viability (LCLC-103H; first compound 0.1265 µM): 0.308
relative viability (LCLC-103H; first compound 0.4 µM): 0.371
relative viability (LCLC-103H; first compound 1.265 µM): 0.268
relative viability (LCLC-103H; first compound 4 µM): 0.28
relative viability (NCI-H23; first compound 0.04 µM): 0.749
relative viability (NCI-H23; first compound 0.1265 µM): 0.768
relative viability (NCI-H23; first compound 0.4 µM): 0.812
relative viability (NCI-H23; first compound 1.265 µM): 0.414
relative viability (NCI-H23; first compound 4 µM): 0.592
relative viability (201T; first compound 0.04 µM): 0.47
relative viability (201T; first compound 0.1265 µM): 0.415
relative viability (201T; first compound 0.4 µM): 0.408
relative viability (201T; first compound 1.265 µM): 0.377
relative viability (201T; first compound 4 µM): 0.344
relative viability (NCI-H3122; first compound 0.04 µM): 0.362
relative viability (NCI-H3122; first compound 0.4 µM): 0.377
relative viability (NCI-H3122; first compound 1.265 µM): 0.313
relative viability (NCI-H3122; first compound 4 µM): 0.264
relative viability (NCI-H838; first compound 0.04 µM): 0.554
relative viability (NCI-H838; first compound 0.1265 µM): 0.285
relative viability (NCI-H838; first compound 0.4 µM): 0.372
relative viability (NCI-H838; first compound 1.265 µM): 0.253
relative viability (NCI-H838; first compound 4 µM): 0.17
relative viability (HARA; first compound 0.04 µM): 0.465
relative viability (HARA; first compound 0.1265 µM): 0.236
relative viability (HARA; first compound 0.4 µM): 0.484
relative viability (HARA; first compound 1.265 µM): 0.173
relative viability (HARA; first compound 4 µM): 0.186
relative viability (NCI-H522; first compound 0.04 µM): 0.656
relative viability (NCI-H522; first compound 0.1265 µM): 0.615
relative viability (NCI-H522; first compound 0.4 µM): 0.55
relative viability (NCI-H522; first compound 1.265 µM): 0.519
relative viability (NCI-H522; first compound 4 µM): 0.323
relative viability (NCI-H647; first compound 0.04 µM): 0.433
relative viability (NCI-H647; first compound 0.1265 µM): 0.306
relative viability (NCI-H647; first compound 0.4 µM): 0.229
relative viability (NCI-H647; first compound 1.265 µM): 0.0637
relative viability (NCI-H647; first compound 4 µM): 0.0562
relative viability (NCI-H650; first compound 0.04 µM): 0.418
relative viability (NCI-H650; first compound 0.1265 µM): 0.358
relative viability (NCI-H650; first compound 0.4 µM): 0.313
relative viability (NCI-H650; first compound 1.265 µM): 0.273
relative viability (NCI-H650; first compound 4 µM): 0.25
relative viability (NCI-H1395; first compound 0.04 µM): 0.439
relative viability (NCI-H1395; first compound 0.1265 µM): 0.417
relative viability (NCI-H1395; first compound 0.4 µM): 0.478
relative viability (NCI-H1395; first compound 1.265 µM): 0.455
relative viability (NCI-H1395; first compound 4 µM): 0.396
relative viability (NCI-H727; first compound 0.04 µM): 0.458
relative viability (NCI-H727; first compound 0.1265 µM): 0.282
relative viability (NCI-H727; first compound 0.4 µM): 0.368
relative viability (NCI-H727; first compound 1.265 µM): 0.393
relative viability (NCI-H727; first compound 4 µM): 0.343
